System: biofilm extracellular matrix
Experiment: dose dependent extracellular matrix degradation of the enzymes mutanase and dextranase (FIG. 4)
Format: cell-based
Details: combination of mutanase and dextranase
Source text: FIG. 4 depicts the dose dependent extracellular matrix degradation of the enzymes mutanase and dextranase.
FIG. 4 depicts the dose dependent extracellular matrix degradation of the enzymes mutanase and dextranase in accordance with an embodiment of disclosed subject matter. While the catalytic function of iron oxide nanoparticles degrades the biofilm matrix more slowly than it substantially eradicates the bacteria, the rate of degradation can be enhanced with enzymes including mutanase and dextranase. A combination of 1.75 U mutanase and 8.75 U dextranase achieves maximal efficacy for extracellular matrix degradation.

Substance | amount that achieves maximal efficacy for extracellular matrix degradation [U]
dextranase | 8.75
mutanase | 1.75

From US12433295B2, “Small-scale robots for biofilm eradication” (THE TRUSTEES OF THE UNIVERSITY OF PENNSYLVANIA, priority 2018, dated 2025)
